The results in this text go back to US11897850B1, “N′-(2-(5-(4-chlorophenyl)-1,3,4-oxadiazol-2-ylthio)acetoxy)-4-methoxybenzimidamide as an antimicrobial compound” (KING FAISAL UNIVERSITY, priority 2023, dated 2024).

Type in all cases: cell-based
For test [1], the system named is Chrysosporium keratinophilum. The test is described as follows: Agar plate disc-diffusion, antifungal activity by inhibition zone. Conditions: Sabouraud's dextrose agar, 72 h. The method, then:
The agar plate disc-diffusion method was applied. Sterilized filter papers (6 mm in diameter) were wetted with 10 μL of a solution N′-(2-(5-(4-chlorophenyl)-1,3,4-oxadiazol-2-ylthio)acetoxy)-4-methoxybenzimidamide (3) to be tested, containing 10 mg/mL in DMSO, and the discs were allowed to air dry. The discs were then placed onto the surface of agar plates (nutrient agar for bacteria and Sabouraud's dextrose agar for fungi) seeded with the test organism. Each plate contained 15 mL of the agar medium, previously seeded with 0.2 mL of the broth culture of each organism pregrown for 18 h. The plates were incubated at 37° C. for 48 h, and 72 h for fungi. The inhibition zones was measured in mm. Discs impregnated with DMSO were used as a control, and its inhibition zone was subtracted from the tested compound actual inhibition zone.
(§1) The results of the antimicrobial testing can be observed in Tables 1 and 2, below, using ciprofloxacin as a reference.

In another test the test system is Aspergillus flavus. The description is as above. Conditions: Sabouraud's dextrose agar, 72 h. On the procedure: (§2) The agar plate disc-diffusion method was applied. […] The discs were then placed onto the surface of agar plates (nutrient agar for bacteria and Sabouraud's dextrose agar for fungi) seeded with the test organism. Each plate contained 15 mL of the agar medium, previously seeded with 0.2 mL of the broth culture of each organism pregrown for 18 h. The plates were incubated at 37° C. for 48 h, and 72 h for fungi. The inhibition zones was measured in mm. Discs impregnated with DMSO were used as a control, and its inhibition zone was subtracted from the tested compound actual inhibition zone.
as §1

The subject of the next test is Staphylococcus aureus. The test is described as follows: Agar plate disc-diffusion, antibacterial activity by inhibition zone. To be noted: nutrient agar, 37° C., 48 h. The method, then:
as §2, §1

Another test deals with Bacillus cereus. Described as above. To be noted: nutrient agar, 37° C., 48 h. The method, then:
as §2, §1

The subject of another test is Escherichia coli. Described as above. Conditions: nutrient agar, 37° C., 48 h. The method, then: as §2, §1
For another test, the system named is Pseudomonas aeruginosa. The description is as above. Conditions: nutrient agar, 37° C., 48 h. The method, then: as §2, §1
Setting [2] is: A = concentration of comp. = 10,000 μL.
[3] abbreviates: B = concentration of comp. = 30,000 μL.
The mark [4] stands for this setting: C = concentration of comp. = 50,000 μL.

Each structure is given as a SMILES string.

`O=C(O)c1cn(C2CC2)c2cc(N3CCNCC3)c(F)cc2c1=O` [Cip., ciprofloxacin]: the inhibition zone in test [1] (setting [2]) was 29 mm; in test [1] (setting [3]) it was 30 mm; in test [1] (setting [4]), 53 mm; in the test with Aspergillus flavus (setting [2]), 29 mm; in the test on Aspergillus flavus (setting [3]), 30 mm; in the test on Aspergillus flavus (setting [4]) it was 42 mm. Further, the inhibition zone in the test with Staphylococcus aureus (setting [2]) worked out at 43 mm; in the test with Staphylococcus aureus (setting [3]), 44 mm; with Staphylococcus aureus (setting [4]), 53 mm; in the test on Bacillus cereus (setting [2]), 29 mm; in the test on Bacillus cereus (setting [3]), 30 mm; with Bacillus cereus (setting [4]) it was 42 mm. Also, the inhibition zone is given as 30 mm in the test with Escherichia coli (setting [2]); 39 mm in the test on Escherichia coli (setting [3]); 60 mm in the test with Escherichia coli (setting [4]); 29 mm in the test on Pseudomonas aeruginosa (setting [2]); 30 mm in the test on Pseudomonas aeruginosa (setting [3]); 53 mm with Pseudomonas aeruginosa (setting [4]).

With `COc1ccc(/C(N)=N/OC(=O)CSc2nnc(-c3ccc(Cl)cc3)o2)cc1` [Compound 3, N′-(2-(5-(4-chlorophenyl)-1,3,4-oxadiazol-2-ylthio)acetoxy)-4-methoxybenzimidamide], the inhibition zone in test [1] (setting [2]) was found to be 24 mm; in test [1] (setting [3]), 28 mm; in test [1] (setting [4]), 41 mm; with Aspergillus flavus (setting [2]), 21 mm; in the test with Aspergillus flavus (setting [3]), 22 mm; in the test on Aspergillus flavus (setting [4]), 35 mm. The inhibition zone is reported as 20 mm in the test on Staphylococcus aureus (setting [2]); 24 mm in the test on Staphylococcus aureus (setting [3]); 36 mm in the test on Staphylococcus aureus (setting [4]); 28 mm in the test with Bacillus cereus (setting [2]); 31 mm in the test with Bacillus cereus (setting [3]); 39 mm in the test on Bacillus cereus (setting [4]). Further, the inhibition zone in the test with Escherichia coli (setting [2]) came to 29 mm; in the test with Escherichia coli (setting [3]), 38 mm; in the test with Escherichia coli (setting [4]), 47 mm; in the test on Pseudomonas aeruginosa (setting [2]) it was 24 mm; in the test on Pseudomonas aeruginosa (setting [3]) it was 28 mm; in the test on Pseudomonas aeruginosa (setting [4]), 40 mm.
